From patent publication US10729680B2, “5-substituted 2-(morpholin-4-yl)-1,7-naphthyridines” (BAYER PHARMA AKTIENGESELLSCHAFT, priority 2016, dated 2020)

Target: full-length human ATR protein (ATR/ATRIP) (Homo sapiens (Human), UniProt Q13535)
Assay: Binding Assay ATR (TR-FRET, tracer A displacement)
Settings: displacement of fluorescent tracer A from GST-ATR/ATRIP
Text: To determine of binding activity of the test compounds, full-length human ATR protein was expressed and purified together with ATRIP as described above. Furthermore, a fluorescently labelled compound (tracer A as described above) was used as a tracer molecule. Detection of the binding event of the tracer was achieved by time-resolved fluorescence energy transfer (TR-FRET). We used an anti-GST-Terbium antibody (CisBio) that binds to the GST-tag at the N-terminus of ATR-kinase. Excitation of Terbium with 337 nm light results in emission of fluorescent light with 545 nm. In case a tetrameric complex has formed (antiGST-Tb+GST-ATR+Strp2-ATRIP+tracer), part of the energy will be transferred from the Terbium to the fluorophore that itself emits light of 570 nm. Displacement of the fluorescent tracer by a test compound leads to a reduction of the TR-FRET-signal.
For the assay 50 nl of a 100-fold concentrated solution of the test compound in DMSO was pipetted into a black low volume 384 well microtiter plate (MTP, Greiner Bio-One, Frickenhausen, Germany). To prepare the ATR-working solution, ATR/ATRIP stock solution was diluted in assay buffer [50 mM HEPES (pH 7.0), 10 mM MgCl2, 1 mM DTT, 0.01% (w/v) Igepal, 0.01% (w/v) BSA] to 4.2 nM protein concentration (concentration may vary from lot to lot of protein preparation). AntiGST-Tb antibody was diluted to 4.2 nM. The ATR-working solution was incubated for 30 min at 22° C. prior to dispensing to pre-form the complex of antiGST-Tb+GST-ATR+ATRIP. Then, 3 μl of the ATR-working solution were added to the test compound and the mixture was incubated for 10 min at 22° C. to allow pre-binding of the test compounds to ATR/ATRIP. Then, 2 μl of a 100 nM solution of tracer A in assay buffer were added to the ATR-working solution. The resulting mixture was incubated for 30 min at 22° C. The measurement of the TR-FRET signal was performed in a standard HTRF-compatible MTP reader instrument (e.g. BMG Pherastar) by recording the fluorescence emissions at 545 nm and 570 nm after excitation at 337-350 nm. The ratio between emission at 570 nm divided by emission at 545 nm was calculated to give the well ratio. The experimental data (well ratios) were normalised by the following way: positive control contained ATR-working solution plus tracer A solution (=0% inhibition), the negative control contained all components except GST-ATR/ATRIP (=100% inhibition). Usually the compounds were tested on the same MTP in 11 different concentrations in the range of 20 μM to 0.1 nM (20 μM, 5.9 μM, 1.7 μM, 0.51 μM, 0.15 μM, 44 nM, 13 nM, 3.8 nM, 1.1 nM, 0.33 nM and 0.1 nM). The dilution series were prepared separately before the assay on the level of the 100 fold concentrated solutions in DMSO by serial 1:3.4 dilutions in duplicate values for each concentration. IC50 values were calculated by a 4 parameter fit using standard software (GraphPad prism or equivalent).

full-length human ATR protein (ATR/ATRIP), sequence (Q13535 other isoform, or with tags, fused parts or gaps): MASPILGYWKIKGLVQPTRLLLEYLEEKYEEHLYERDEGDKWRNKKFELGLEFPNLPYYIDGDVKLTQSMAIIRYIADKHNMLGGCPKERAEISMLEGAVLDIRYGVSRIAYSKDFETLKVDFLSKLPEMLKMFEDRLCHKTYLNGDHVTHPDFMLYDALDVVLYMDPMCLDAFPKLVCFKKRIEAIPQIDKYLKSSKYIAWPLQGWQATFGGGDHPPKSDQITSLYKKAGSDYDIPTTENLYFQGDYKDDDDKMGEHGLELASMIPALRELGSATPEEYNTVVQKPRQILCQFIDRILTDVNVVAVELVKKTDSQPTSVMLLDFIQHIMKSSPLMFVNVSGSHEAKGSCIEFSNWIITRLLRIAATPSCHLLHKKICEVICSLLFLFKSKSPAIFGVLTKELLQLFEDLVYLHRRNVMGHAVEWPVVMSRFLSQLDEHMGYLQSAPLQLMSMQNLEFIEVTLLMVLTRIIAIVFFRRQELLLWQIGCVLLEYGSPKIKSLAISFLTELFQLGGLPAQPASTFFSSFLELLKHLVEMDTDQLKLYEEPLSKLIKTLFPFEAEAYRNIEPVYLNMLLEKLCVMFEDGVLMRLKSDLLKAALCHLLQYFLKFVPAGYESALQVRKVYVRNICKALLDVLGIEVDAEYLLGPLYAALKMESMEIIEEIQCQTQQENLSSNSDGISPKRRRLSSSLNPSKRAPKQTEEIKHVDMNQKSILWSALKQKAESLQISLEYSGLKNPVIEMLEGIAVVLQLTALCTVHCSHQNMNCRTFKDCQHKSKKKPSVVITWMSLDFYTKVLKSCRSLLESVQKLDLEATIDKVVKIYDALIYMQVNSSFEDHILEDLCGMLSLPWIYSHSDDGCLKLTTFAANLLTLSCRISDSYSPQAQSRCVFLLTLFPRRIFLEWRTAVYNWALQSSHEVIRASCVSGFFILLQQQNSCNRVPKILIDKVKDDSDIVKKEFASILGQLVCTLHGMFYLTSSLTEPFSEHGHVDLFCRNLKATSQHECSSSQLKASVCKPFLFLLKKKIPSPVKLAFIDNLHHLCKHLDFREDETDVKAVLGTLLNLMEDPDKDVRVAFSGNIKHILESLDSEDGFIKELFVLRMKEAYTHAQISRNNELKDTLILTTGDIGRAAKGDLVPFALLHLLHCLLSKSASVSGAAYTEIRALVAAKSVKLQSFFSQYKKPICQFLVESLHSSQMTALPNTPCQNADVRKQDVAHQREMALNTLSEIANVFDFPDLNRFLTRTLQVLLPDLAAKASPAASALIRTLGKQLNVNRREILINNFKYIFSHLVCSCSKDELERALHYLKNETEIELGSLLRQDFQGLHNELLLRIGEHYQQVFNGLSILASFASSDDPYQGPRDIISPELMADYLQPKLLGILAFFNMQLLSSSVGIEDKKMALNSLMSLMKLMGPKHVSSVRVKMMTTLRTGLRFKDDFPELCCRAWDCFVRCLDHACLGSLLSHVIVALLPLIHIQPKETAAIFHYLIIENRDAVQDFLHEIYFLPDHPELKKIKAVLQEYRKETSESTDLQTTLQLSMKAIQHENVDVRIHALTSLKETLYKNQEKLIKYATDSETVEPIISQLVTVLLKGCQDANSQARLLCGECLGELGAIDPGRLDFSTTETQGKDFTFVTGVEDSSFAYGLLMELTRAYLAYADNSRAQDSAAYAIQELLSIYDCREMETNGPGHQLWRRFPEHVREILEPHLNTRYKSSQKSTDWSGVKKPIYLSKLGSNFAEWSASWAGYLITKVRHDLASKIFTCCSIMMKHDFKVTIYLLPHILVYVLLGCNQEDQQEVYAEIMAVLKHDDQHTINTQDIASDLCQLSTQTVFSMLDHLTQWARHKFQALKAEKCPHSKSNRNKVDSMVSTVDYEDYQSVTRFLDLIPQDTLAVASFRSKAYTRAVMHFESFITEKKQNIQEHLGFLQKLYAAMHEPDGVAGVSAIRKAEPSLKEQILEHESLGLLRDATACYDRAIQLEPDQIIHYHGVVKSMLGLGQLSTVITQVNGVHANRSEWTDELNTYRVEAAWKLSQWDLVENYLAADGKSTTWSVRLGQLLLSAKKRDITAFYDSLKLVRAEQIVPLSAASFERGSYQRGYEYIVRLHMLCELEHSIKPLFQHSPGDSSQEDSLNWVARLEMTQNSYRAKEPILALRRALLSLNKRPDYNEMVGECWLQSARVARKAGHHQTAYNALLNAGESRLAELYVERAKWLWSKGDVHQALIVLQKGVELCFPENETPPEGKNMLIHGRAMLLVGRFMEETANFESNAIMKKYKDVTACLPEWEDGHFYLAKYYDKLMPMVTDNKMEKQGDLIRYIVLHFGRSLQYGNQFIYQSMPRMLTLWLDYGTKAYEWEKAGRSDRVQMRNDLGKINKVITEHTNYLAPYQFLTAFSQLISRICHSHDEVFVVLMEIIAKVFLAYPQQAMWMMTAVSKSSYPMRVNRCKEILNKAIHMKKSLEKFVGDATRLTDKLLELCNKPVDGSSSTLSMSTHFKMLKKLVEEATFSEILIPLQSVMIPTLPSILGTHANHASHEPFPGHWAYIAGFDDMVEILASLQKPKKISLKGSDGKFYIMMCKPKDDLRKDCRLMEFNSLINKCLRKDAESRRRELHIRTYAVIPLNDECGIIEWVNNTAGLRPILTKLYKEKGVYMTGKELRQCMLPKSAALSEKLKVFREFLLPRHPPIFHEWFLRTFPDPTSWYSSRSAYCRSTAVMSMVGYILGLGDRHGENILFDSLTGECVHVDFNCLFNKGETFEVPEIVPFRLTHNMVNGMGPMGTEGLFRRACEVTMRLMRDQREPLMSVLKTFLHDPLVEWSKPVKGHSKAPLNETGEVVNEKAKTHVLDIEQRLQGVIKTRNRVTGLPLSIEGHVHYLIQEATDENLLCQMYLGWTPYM
full-length human ATR protein (ATR/ATRIP), sequence (Q8WXE1 other isoform, or with tags, fused parts or gaps partner): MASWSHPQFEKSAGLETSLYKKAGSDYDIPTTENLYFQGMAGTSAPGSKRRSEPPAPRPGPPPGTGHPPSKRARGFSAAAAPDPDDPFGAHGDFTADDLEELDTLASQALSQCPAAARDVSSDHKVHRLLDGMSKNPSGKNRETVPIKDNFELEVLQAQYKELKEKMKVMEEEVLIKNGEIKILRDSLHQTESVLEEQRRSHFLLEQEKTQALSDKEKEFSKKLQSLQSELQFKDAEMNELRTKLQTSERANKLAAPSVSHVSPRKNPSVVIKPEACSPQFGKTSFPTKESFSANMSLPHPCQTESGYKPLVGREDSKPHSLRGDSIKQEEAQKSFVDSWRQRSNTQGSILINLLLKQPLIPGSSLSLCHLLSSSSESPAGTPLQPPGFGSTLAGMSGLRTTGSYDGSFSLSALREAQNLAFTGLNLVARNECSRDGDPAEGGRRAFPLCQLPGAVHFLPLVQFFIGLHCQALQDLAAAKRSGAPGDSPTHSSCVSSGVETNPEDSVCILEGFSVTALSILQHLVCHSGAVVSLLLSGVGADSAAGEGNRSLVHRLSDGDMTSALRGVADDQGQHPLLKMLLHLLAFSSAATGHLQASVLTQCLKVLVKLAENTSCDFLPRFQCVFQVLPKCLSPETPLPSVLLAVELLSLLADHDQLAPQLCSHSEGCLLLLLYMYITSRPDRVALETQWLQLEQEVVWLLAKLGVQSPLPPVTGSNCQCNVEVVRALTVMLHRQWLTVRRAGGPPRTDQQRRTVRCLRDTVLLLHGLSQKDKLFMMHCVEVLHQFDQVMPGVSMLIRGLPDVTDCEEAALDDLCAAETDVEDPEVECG

Structure (SMILES)	IC50
Cc1cnc(-c2ccn[nH]2)c2nc(N3CCOC[C@H]3C)cc(P(C)(C)=O)c12 [Example 18, 4-(dimethylphosphoryl)-5-methyl-2-[(3R)-3-methylmorpholin-4-yl]-8-(1H-pyrazol-5-yl)-1,7-naphthyridine]	66.4 nM
Cc1cnc(-c2ccn[nH]2)c2nc(N3CCOC[C@H]3C)cc(P(C)(=O)OCC(C)C)c12 (stereo partly drawn) [Example 19, 2-methylpropyl methyl{5-methyl-2-[(3R)-3-methylmorpholin-4-yl]-8-(1H-pyrazol-5-yl)-1,7-naphthyridin-4-yl}phosphinate]	34.9 nM
Cc1cnc(-c2ccn[nH]2)c2nc(N3CCOC[C@H]3C)cc(-c3ccccc3)c12 [Example 20, 5-methyl-2-[(3R)-3-methylmorpholin-4-yl]-4-phenyl-8-(1H-pyrazol-5-yl)-1,7-naphthyridine]	24.4 nM
Cc1cnc(-c2ccn[nH]2)c2nc(N3CCOC[C@H]3C)cc(-c3ccc4c(c3)OCCO4)c12 [Example 21, 4-(2,3-dihydro-1,4-benzodioxin-6-yl)-5-methyl-2-[(3R)-3-methylmorpholin-4-yl]-8-(1H-pyrazol-5-yl)-1,7-naphthyridine]	17.9 nM
Cc1cnc(-c2ccn[nH]2)c2nc(N3CCOC[C@H]3C)cc(-c3ccc(Cl)cc3Cl)c12 [Example 22, 4-(2,4-dichlorophenyl)-5-methyl-2-[(3R)-3-methylmorpholin-4-yl]-8-(1H-pyrazol-5-yl)-1,7-naphthyridine]	16.4 nM
Cc1cnc(-c2ccn[nH]2)c2nc(N3CCOC[C@H]3C)cc(-c3cccc(CO)c3)c12 [Example 23, (3-{5-methyl-2-[(3R)-3-methylmorpholin-4-yl]-8-(1H-pyrazol-5-yl)-1,7-naphthyridin-4-yl}phenyl)methanol]	14 nM
Cc1cnc(-c2ccn[nH]2)c2nc(N3CCOC[C@H]3C)cc(-c3ccc(F)cc3)c12 [Example 24, 4-(4-fluorophenyl)-5-methyl-2-[(3R)-3-methylmorpholin-4-yl]-8-(1H-pyrazol-5-yl)-1,7-naphthyridine]	34.7 nM
COc1ccc(-c2cc(N3CCOC[C@H]3C)nc3c(-c4ccn[nH]4)ncc(C)c23)cc1 [Example 25, 4-(4-methoxyphenyl)-5-methyl-2-[(3R)-3-methylmorpholin-4-yl]-8-(1H-pyrazol-5-yl)-1,7-naphthyridine]	25.4 nM
Cc1cnc(-c2ccn[nH]2)c2nc(N3CCOC[C@H]3C)cc(-c3cc(F)cc(F)c3F)c12 [Example 26, 5-methyl-2-[(3R)-3-methylmorpholin-4-yl]-8-(1H-pyrazol-5-yl)-4-(2,3,5-trifluorophenyl)-1,7-naphthyridine]	11.2 nM
COc1ccc(-c2cc(N3CCOC[C@H]3C)nc3c(-c4ccn[nH]4)ncc(C)c23)cn1 [Example 27, 4-(6-methoxypyridin-3-yl)-5-methyl-2-[(3R)-3-methylmorpholin-4-yl]-8-(1H-pyrazol-5-yl)-1,7-naphthyridine]	15.4 nM
Cc1cnc(-c2ccn[nH]2)c2nc(N3CCOC[C@H]3C)cc(-c3ccc([S+](C)[O-])cc3)c12 (stereo partly drawn) [Example 29, 5-methyl-2-[(3R)-3-methylmorpholin-4-yl]-4-[4-(methylsulfinyl)phenyl]-8-(1H-pyrazol-5-yl)-1,7-naphthyridine]	29.1 nM
COc1cccc(-c2cc(N3CCOC[C@H]3C)nc3c(-c4ccn[nH]4)ncc(C)c23)c1F [Example 30, 4-(2-fluoro-3-methoxyphenyl)-5-methyl-2-[(3R)-3-methylmorpholin-4-yl]-8-(1H-pyrazol-5-yl)-1,7-naphthyridine]	17.5 nM
Cc1cnc(-c2ccn[nH]2)c2nc(N3CCOC[C@H]3C)cc(-c3ccccc3S(C)(=O)=O)c12 [Example 31, 5-methyl-2-[(3R)-3-methylmorpholin-4-yl]-4-[2-(methylsulfonyl)phenyl]-8-(1H-pyrazol-5-yl)-1,7-naphthyridine]	47.2 nM
Cc1cnc(-c2ccn[nH]2)c2nc(N3CCOC[C@H]3C)cc(-c3ccc(NS(C)(=O)=O)cc3)c12 [Example 32, N-(4-{5-methyl-2-[(3R)-3-methylmorpholin-4-yl]-8-(1H-pyrazol-5-yl)-1,7-naphthyridin-4-yl}phenyl)methanesulfonamide]	4.31 nM
Cc1cnc(-c2ccn[nH]2)c2nc(N3CCOC[C@H]3C)cc(C3=CCCC3)c12 [Example 33, 4-(cyclopent-1-en-1-yl)-5-methyl-2-[(3R)-3-methylmorpholin-4-yl]-8-(1H-pyrazol-5-yl)-1,7-naphthyridine]	26.5 nM
Cc1cnc(-c2ccn[nH]2)c2nc(N3CCOC[C@H]3C)cc(-c3ccc(C(=O)N(C)C)cc3)c12 [Example 35, N,N-dimethyl-4-{5-methyl-2-[(3R)-3-methylmorpholin-4-yl]-8-(1H-pyrazol-5-yl)-1,7-naphthyridin-4-yl}benzamide]	28.8 nM
Cc1cc(-c2cc(N3CCOC[C@H]3C)nc3c(-c4ccn[nH]4)ncc(C)c23)ccc1Cl [Example 36, 4-(4-chloro-3-methylphenyl)-5-methyl-2-[(3R)-3-methylmorpholin-4-yl]-8-(1H-pyrazol-5-yl)-1,7-naphthyridine]	456 nM
COc1cccc(-c2cc(N3CCOC[C@H]3C)nc3c(-c4ccn[nH]4)ncc(C)c23)c1OC [Example 37, 4-(2,3-dimethoxyphenyl)-5-methyl-2-[(3R)-3-methylmorpholin-4-yl]-8-(1H-pyrazol-5-yl)-1,7-naphthyridine]	13.8 nM
COc1cc(Cl)ccc1-c1cc(N2CCOC[C@H]2C)nc2c(-c3ccn[nH]3)ncc(C)c12 [Example 38, 4-(4-chloro-2-methoxyphenyl)-5-methyl-2-[(3R)-3-methylmorpholin-4-yl]-8-(1H-pyrazol-5-yl)-1,7-naphthyridine]	47.9 nM
CSc1ccc(-c2cc(N3CCOC[C@H]3C)nc3c(-c4ccn[nH]4)ncc(C)c23)cc1 [Example 39, 5-methyl-2-[(3R)-3-methylmorpholin-4-yl]-4-[4-(methylsulfanyl)phenyl]-8-(1H-pyrazol-5-yl)-1,7-naphthyridine]	31.9 nM
Cc1cnc(-c2ccn[nH]2)c2nc(N3CCOC[C@H]3C)cc(-c3cccc(N(C)C)c3)c12 [Example 40, N,N-dimethyl-3-{5-methyl-2-[(3R)-3-methylmorpholin-4-yl]-8-(1H-pyrazol-5-yl)-1,7-naphthyridin-4-yl}aniline]	34.3 nM
Cc1cnc(-c2ccn[nH]2)c2nc(N3CCOC[C@H]3C)cc(-c3cccc(S(C)(=O)=O)c3)c12 [Example 41, 5-methyl-2-[(3R)-3-methylmorpholin-4-yl]-4-[3-(methylsulfonyl)phenyl]-8-(1H-pyrazol-5-yl)-1,7-naphthyridine]	24.9 nM
COc1cc(OC)cc(-c2cc(N3CCOC[C@H]3C)nc3c(-c4ccn[nH]4)ncc(C)c23)c1 [Example 42, 4-(3,5-dimethoxyphenyl)-5-methyl-2-[(3R)-3-methylmorpholin-4-yl]-8-(1H-pyrazol-5-yl)-1,7-naphthyridine]	112 nM
Cc1cnc(-c2ccn[nH]2)c2nc(N3CCOC[C@H]3C)cc(-c3ccnc4ccccc34)c12 [Example 43, 5-methyl-2-[(3R)-3-methylmorpholin-4-yl]-8-(1H-pyrazol-5-yl)-4-(quinolin-4-yl)-1,7-naphthyridine]	36 nM
Cc1cnc(-c2ccn[nH]2)c2nc(N3CCOC[C@H]3C)cc(-c3cccc4[nH]ccc34)c12 [Example 44, 4-(1H-indol-4-yl)-5-methyl-2-[(3R)-3-methylmorpholin-4-yl]-8-(1H-pyrazol-5-yl)-1,7-naphthyridine]	35.5 nM
